Measurements as given in patent US12371454B2, “Cyclic peptide compound having Kras inhibitory action” (priority 2019, dated 2025).
Starred links: 1 amine or outer side, 2 acyl side, 3 side chain; linkers in the order of their positions; H or OH if unused. Positions of bridges follow the written chain, without caps; N, C: chain ends. Non-standard residues stand in square brackets, D forms with d. Residues, ends and D or L forms follow the SMILES beside them. *: point of attachment. hPhe(3-Cl-4-CF3) = N[C@@H](CCc1ccc(C(F)(F)F)c(Cl)c1)C(=O)O; X38 = CN([C@@H](Cc1cccc(OC(F)(F)F)c1)C(=O)[*:2])[*:1]; X23 = CN([C@@H](Cc1ccccc1OC(F)(F)F)C(=O)[*:2])[*:1]; hPhe(4-CF3) = N[C@@H](CCc1ccc(C(F)(F)F)cc1)C(=O)O; NMePhe(4-Cl) = CN[C@@H](Cc1ccc(Cl)cc1)C(=O)O; NMePhe(4-Me) = CN[C@@H](Cc1ccc(C)cc1)C(=O)O; NMeGly(cPent) = CN[C@H](C(=O)O)C1CCCC1; Phe(3-F) = N[C@@H](Cc1cccc(F)c1)C(=O)O; Phe(3-I) = N[C@@H](Cc1cccc(I)c1)C(=O)O; X70 = CC(C)(O)COCCN(CC(=O)[*:2])[*:1]; NMeY = CN[C@@H](Cc1ccc(O)cc1)C(=O)O; NMeCha = CN[C@@H](CC1CCCCC1)C(=O)O; NMeChg = CN[C@H](C(=O)O)C1CCCCC1; NMeF = CN[C@@H](Cc1ccccc1)C(=O)O; NMeI = CC[C@H](C)[C@H](NC)C(=O)O; NMeD = CN[C@@H](CC(=O)O)C(=O)O; NMeL = CN[C@@H](CC(C)C)C(=O)O; Chg = N[C@H](C(=O)O)C1CCCCC1; NMeV = CN[C@H](C(=O)O)C(C)C; d(β3hA) = C[C@@H](N)CC(=O)O; Pip = O=C(O)[C@@H]1CCCCN1; NMeA = CN[C@@H](C)C(=O)O; Nle = CCCC[C@H](N)C(=O)O; Piperidide = C1CCN(*)CC1; Pyrrolidide = C1CCN(*)C1; Ac5c = NC1(C(=O)O)CCCC1; Aze = O=C(O)[C@@H]1CCN1; Sar = CNCC(=O)O

Molecular target: T1, Kras and SOS1 (biotin-tagged human Kras loaded with GDP, His-tagged human SOS1) (Homo sapiens, UniProt P01116, G12D)
T1 construct: made in house; host or cells: E. coli (stated for Kras only)
T1 sequence (P01116 1-188 isoform P01116-2 G12D): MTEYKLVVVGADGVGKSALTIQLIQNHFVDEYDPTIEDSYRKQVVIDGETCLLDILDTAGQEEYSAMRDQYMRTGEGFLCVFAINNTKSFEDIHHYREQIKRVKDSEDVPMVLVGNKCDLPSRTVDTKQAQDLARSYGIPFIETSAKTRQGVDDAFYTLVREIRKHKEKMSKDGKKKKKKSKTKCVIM
Test: Protein-protein interaction inhibition between Kras and SOS1 (KrasGl2D-SOS PPI) using AlphaScreen
Format: binding
Settings: AlphaScreen; biotin-tagged human Kras loaded with GDP, His-tagged human SOS1; read-out: KRAS G12D-SOS PPI IC50
Procedure, shortened: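 Energy transfer from nickel-chelate donor beads bound to His-SOS1 to streptavidin acceptor beads bound to biotin-Kras, expressed in E. coli and loaded with GDP after purification, was monitored. Donors were excited at 680 nm; singlet oxygen reaching acceptors gave emission read at 520-620 nm.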

SMILES | IC50 [nM]
CCCC[C@@H]1NC(=O)[C@H](Cc2cccc(I)c2)NC(=O)CN(C)C(=O)[C@H](Cc2ccc(Cl)cc2)N(C)C(=O)CN(C)C(=O)CN(C)C(=O)[C@H]([C@@H](C)CC)NC(=O)[C@H](CC(C)C)N(C)C(=O)C[C@@H](C(=O)N2CCCCC2)N(C)C(=O)[C@H](CC(C)C)NC(=O)[C@H](Cc2cccc(OC(F)(F)F)c2)N(C)C1=O [Compound 143] ([NMeL]I[Sar][Sar][NMePhe(4-Cl)][Sar][Phe(3-I)][Nle][X38]L[NMeD]-Piperidide; lactam N-11) | 68
CC[C@H](C)[C@@H]1NC(=O)[C@H](C)N(C)C(=O)C[C@@H](C)NC(=O)[C@H](C2CCCC2)N(C)C(=O)C2(CCCC2)NC(=O)[C@@H]2CCCN2C(=O)[C@H](CCc2ccc(C(F)(F)F)c(Cl)c2)NC(=O)[C@H]2CCCN2C(=O)[C@H](Cc2ccc(C)cc2)N(C)C(=O)[C@@H]2CCN2C(=O)[C@H](C)N(C)C1=O [Compound 1540] (cyclo([Ac5c][NMeGly(cPent)][d(β3hA)][NMeA]I[NMeA][Aze][NMePhe(4-Me)][dP][hPhe(3-Cl-4-CF3)]P)) | 230
CC[C@H](C)[C@@H]1NC(=O)[C@H](CC(C)C)N(C)C(=O)C[C@@H](C(=O)N2CCCCC2)N(C)C(=O)[C@H](C2CCCCC2)N(C)C(=O)C2(CCCC2)NC(=O)[C@@H]2CCCN2C(=O)[C@H](CCc2ccc(C(F)(F)F)c(Cl)c2)NC(=O)CN(C)C(=O)[C@H](CC2CCCCC2)N(C)C(=O)[C@H](C)N(C)C(=O)CN(C)C1=O [Compound 1186] ([NMeL]I[Sar][NMeA][NMeCha][Sar][hPhe(3-Cl-4-CF3)]P[Ac5c][NMeChg][NMeD]-Piperidide; lactam N-11) | 8.6
CC[C@H](C)[C@@H]1NC(=O)[C@H](CC(C)C)N(C)C(=O)C[C@@H](C(=O)N(C)C)N(C)C(=O)[C@H]([C@@H](C)CC)N(C)C(=O)C2(CCCC2)NC(=O)[C@H](Cc2ccc(OC)cc2)N(C)C(=O)[C@H](CCc2ccc(C(F)(F)F)c(Cl)c2)NC(=O)CN(C)C(=O)[C@H](Cc2ccc(C)cc2)N(C)C(=O)[C@@H]2CCN2C(=O)[C@H](C)N(C)C1=O [Compound 1935] ([NMeL]I[NMeA][Aze][NMePhe(4-Me)][Sar][hPhe(3-Cl-4-CF3)][NMeY](Me)[Ac5c][NMeI][NMeD]-NMe2; lactam N-11) | 11
CC[C@H](C)[C@@H]1NC(=O)[C@H](CC(C)C)N(C)C(=O)C[C@@H](C(=O)N(C)C)N(C)C(=O)[C@H]([C@@H](C)CC)N(C)C(=O)C2(CCCC2)NC(=O)CN(CCOCC(C)(C)O)C(=O)[C@H](CCc2ccc(C(F)(F)F)c(Cl)c2)NC(=O)CN(C)C(=O)[C@H](Cc2ccc(C)cc2)N(C)C(=O)[C@@H]2CCN2C(=O)[C@H](C)N(C)C1=O [Compound 2034] ([NMeL]I[NMeA][Aze][NMePhe(4-Me)][Sar][hPhe(3-Cl-4-CF3)][X70][Ac5c][NMeI][NMeD]-NMe2; lactam N-11) | 2
CC[C@H](C)[C@@H]1NC(=O)[C@H](C)N(C)C(=O)C[C@@H](C(=O)N2CCCC2)NC(=O)[C@H](C(C)C)N(C)C(=O)[C@H](Cc2ccccc2)N(C)C(=O)[C@H](Cc2ccccc2)NC(=O)[C@H](Cc2cccc(F)c2)NC(=O)CN(C)C(=O)[C@H](Cc2ccc(Cl)cc2)N(C)C(=O)CN(C)C(=O)CN(C)C1=O [Compound 184] ([NMeA]I[Sar][Sar][NMePhe(4-Cl)][Sar][Phe(3-F)]F[NMeF][NMeV]D-Pyrrolidide; lactam N-11) | 320
CC[C@H](C)[C@@H]1NC(=O)[C@H](CC(C)C)N(C)C(=O)C[C@@H](C(=O)N2CCCCC2)N(C)C(=O)[C@H](C2CCCCC2)NC(=O)C2(CCCC2)NC(=O)[C@@H]2CCCN2C(=O)[C@H](CCc2ccc(C(F)(F)F)c(Cl)c2)NC(=O)CN(C)C(=O)[C@H](CC2CCCCC2)N(C)C(=O)CN(C)C(=O)CN(C)C1=O [Compound 1354] ([NMeL]I[Sar][Sar][NMeCha][Sar][hPhe(3-Cl-4-CF3)]P[Ac5c][Chg][NMeD]-Piperidide; lactam N-11) | 7.7
CC[C@H](C)[C@@H]1NC(=O)[C@H](CC(C)C)N(C)C(=O)C[C@@H](C)NC(=O)[C@H](C(C)C)N(C)C(=O)C2(CCCC2)NC(=O)[C@@H]2CCCN2C(=O)[C@H](CCc2ccc(C(F)(F)F)c(Cl)c2)NC(=O)CN(C)C(=O)[C@H](Cc2ccccc2OC(F)(F)F)N(C)C(=O)CN(C)C(=O)CN(C)C1=O [Compound 1635] (cyclo([Ac5c][NMeV][d(β3hA)][NMeL]I[Sar][Sar][X23][Sar][hPhe(3-Cl-4-CF3)]P)) | 140
CC[C@H](C)[C@@H]1NC(=O)[C@@H]2CCCCN2C(=O)C[C@@H](C)NC(=O)[C@H](CC(C)C)N(C)C(=O)C2(CCCC2)NC(=O)[C@@H]2CCCN2C(=O)[C@H](CCc2ccc(C(F)(F)F)cc2)NC(=O)CN(C)C(=O)[C@H](CC2CCCCC2)N(C)C(=O)CN(C)C(=O)CN(C)C1=O [Compound 1097] (cyclo([Ac5c][NMeL][d(β3hA)][Pip]I[Sar][Sar][NMeCha][Sar][hPhe(4-CF3)]P)) | 230
